Data taken from patent US10040798B2, “Pyrrolopyridazine inhibitors of IRAK4 activity” (MERCK SHARP & DOHME CORP., priority 2015, dated 2018).
Structures can show the parent of a compound that is named as a salt.

Target: IRAK4 (Homo sapiens (Human), UniProt Q9NWZ3)
Assay: IRAK4 Kinase Assay (IMAP fluorescence polarization)
Assay type: biochemical
Settings: 0.5 nM GST tagged IRAK4, 100 μM ATP, 30 minutes at 25° C., IMAP FP
Description: The kinase activity of IRAK4 is determined by its ability to catalyze the phosphorylation of a fluorescent polypeptide substrate. The extent of phosphorylation is measured using the IMAP technology (Molecular Devices) where the phosphorylated fluorescent substrate binds to the large M (III)-based nanoparticles which reduces the rotational speed of the substrate and thus increases its fluorescent polarization (FP).
20 μL reaction mixture contains 10 mM TriHCl, pH 7.2, 0.5 nM GST tagged IRAK4 (SignalChem), 100 nM fluorescent peptide substrate (RP7030, Molecular Devices), 100 μM ATP, 1 mM DDT, 1 mM MgCl2, and 0.01% Tween 20. The reaction is initiated by the addition of ATP. After incubation for 30 minutes at 25° C., 60 μL of Progressive IMAP Reagent (Molecular Devices) is added to stop the reaction. Change in RP7030's FP is determined by a FP reader (Analyst HT, LJL BioSystems).

IRAK4, sequence (Q9NWZ3 whole entry): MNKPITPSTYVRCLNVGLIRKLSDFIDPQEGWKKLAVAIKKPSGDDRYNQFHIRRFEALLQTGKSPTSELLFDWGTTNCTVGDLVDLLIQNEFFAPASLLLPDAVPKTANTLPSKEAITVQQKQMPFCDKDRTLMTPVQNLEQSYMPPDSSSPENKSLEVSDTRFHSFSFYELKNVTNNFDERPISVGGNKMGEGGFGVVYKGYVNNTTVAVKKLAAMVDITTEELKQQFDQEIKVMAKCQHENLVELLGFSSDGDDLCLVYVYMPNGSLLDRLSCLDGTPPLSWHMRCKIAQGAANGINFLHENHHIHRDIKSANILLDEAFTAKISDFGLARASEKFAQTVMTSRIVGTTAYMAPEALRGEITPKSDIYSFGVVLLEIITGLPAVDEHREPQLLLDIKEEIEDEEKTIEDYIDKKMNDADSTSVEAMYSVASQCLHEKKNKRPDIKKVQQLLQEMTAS

Structure (SMILES)	IC50
Cn1cc(NC(=O)c2ccc3ccc(N4CCCNCC4)nn23)c(C#N)n1 [Example 30, N-(3-cyano-1-methyl-1H-pyrazol-4-yl)-2-(1,4-diazepan-1-yl)pyrrolo[1,2-b]pyridazine-7-carboxamide trifluoroacetate]	27 nM
Cn1cc(NC(=O)c2ccc3ccc(N4CC5CCC4CN5)nn23)c(C#N)n1 (stereo not shown) [Example 31, N-(3-cyano-1-methyl-1H-pyrazol-4-yl)-2-(2,5-diazabicyclo[2.2.2]oct-2-yl)pyrrolo[1,2-b]pyridazine-7-carboxamide trifluoroacetate]	25 nM
Cn1ncc(NC(=O)c2ccc3ccc(N[C@@H]4CCCC[C@@H]4N)nn23)c1C(F)(F)F [Example 45, 2-{[(1R,2S)-2-aminocyclohexyl]amino}-N-[1-methyl-5-(trifluoromethyl)-1H-pyrazol-4-yl]pyrrolo[1,2-b]pyridazine-7-carboxamide trifluoroacetate]	136 nM
Cn1cc(NC(=O)c2ccc3ccc(N4CC5CCC(C4)N5)nn23)c(C(F)F)n1 [Example 46, 2-(3,8-diazabicyclo[3.2.1]oct-3-yl)-N-[3-(difluoromethyl)-1-methyl-1H-pyrazol-4-yl]pyrrolo[1,2-b]pyridazine-7-carboxamide trifluoroacetate]	1 nM
Cn1cc(NC(=O)c2ccc3ccc(N4CC5CCC(C4)N5)nn23)c(C(F)(F)F)n1 [Example 47, 2-(3,8-diazabicyclo[3.2.1]oct-3-yl)-N-[1-methyl-3-(trifluoromethyl)-1H-pyrazol-4-yl]pyrrolo[1,2-b]pyridazine-7-carboxamide trifluoroacetate]	9 nM
Cn1cc(NC(=O)c2ccc3ccc(N[C@@H]4CCCC(F)(F)[C@@H]4N)nn23)c(Cl)n1 [Example 48, 2-{[(1R,2R)-2-amino-3,3-difluoro-cyclohexyl]amino}-N-(3-chloro-1-methyl-1H-pyrazol-4-yl)pyrrolo[1,2-b]pyridazine-7-carboxamide acetate]	138 nM
Cn1cc(NC(=O)c2ccc3ccc(N[C@@H]4CCCC(F)(F)[C@@H]4N)nn23)c(C#N)n1 [Example 52, 2-{[(1R,2R)-2-amino-3,3-difluoro-cyclohexyl]amino}-N-(3-cyano-1-methyl-1H-pyrazol-4-yl)pyrrolo[1,2-b]pyridazine-7-carboxamide trifluoroacetate]	43 nM
Cn1cc(NC(=O)c2ccc3ccc(N[C@@H]4CCCC[C@@H]4O)nn23)c(Cl)n1 [Example 53, N-(3-chloro-1-methyl-1H-pyrazol-4-yl)-2-{[(1R,2S)-2-hydroxycyclohexyl]amino}pyrrolo[1,2-b]pyridazine-7-carboxamide trifluoroacetate]	55 nM
CC(C)(C)n1cc(NC(=O)c2ccc3ccc(N[C@@H]4CCCC[C@@H]4O)nn23)c(C(F)F)n1 [Example 54, N-[1-tert-butyl-3-(difluoromethyl)-1H-pyrazol-4-yl]-2-{[(1R,2S)-2-hydroxycyclohexyl]amino}pyrrolo[1,2-b]pyridazine-7-carboxamide trifluoroacetate]	640 nM
O=C(Nc1cscc1C(F)F)c1ccc2ccc(N3CC4CCC3CN4)nn12 (stereo not shown) [Example 56, 2-(2,5-diazabicyclo[2.2.2]oct-2-yl)-N-[4-(difluoromethyl)thiophen-3-yl]pyrrolo[1,2-b]pyridazine-7-carboxamide trifluoroacetate]	95 nM
N[C@H]1CCCC[C@H]1Nc1ccc2ccc(C(=O)Nc3ccccc3Br)n2n1 [Example 58, 2-{[(1R,2S)-2-aminocyclohexyl]amino}-N-(2-bromo-phenyl)pyrrolo[1,2-b]pyridazine-7-carboxamide trifluoroacetate]	11 nM
O=C(Nc1ccccc1Cl)c1ccc2ccc(N3CCCNCC3)nn12 [Example 59, N-(2-chlorophenyl)-2-(1,4-diazepan-1-yl)pyrrolo[1,2-b]pyridazine-7-carboxamide trifluoroacetate]	1200 nM
O=C(Nc1cscc1Br)c1ccc2ccc(N3CCCNCC3)nn12 [Example 60, N-(4-bromothiophen-3-yl)-2-(1,4-diazepan-1-yl)pyrrolo[1,2-b]pyridazine-7-carboxamide trifluoroacetate]	548 nM
N[C@H]1CCCC[C@H]1Nc1ccc2ccc(C(=O)Nc3cscc3Br)n2n1 [Example 63, 2-{[(1R,2S)-2-aminocyclohexyl]amino}-N-(4-bromothiophen-3-yl)pyrrolo[1,2-b]pyridazine-7-carboxamide trifluoroacetate]	7 nM
N#Cc1sccc1NC(=O)c1ccc2ccc(N3CCCNCC3)nn12 [Example 67, N-(2-cyanothiophen-3-yl)-2-(1,4-diazepan-1-yl)pyrrolo[1,2-b]pyridazine-7-carboxamide trifluoroacetate]	197 nM
O=C(Nc1cscc1C(F)F)c1ccc2ccc(N3CCCNCC3)nn12 [Example 69, 2-(1,4-diazepan-1-yl)-N-[4-(difluoromethyl)thiophen-3-yl]pyrrolo[1,2-b]pyridazine-7-carboxamide trifluoroacetate]	151 nM
N[C@H]1CCCC[C@H]1Nc1ccc2ccc(C(=O)Nc3ccsc3Cl)n2n1 [Example 71, 2-{[(1R,2S)-2-aminocyclohexyl]amino}-N-(2-chlorothiophen-3-yl)pyrrolo[1,2-b]pyridazine-7-carboxamide trifluoroacetate]	4 nM
N[C@H]1CCCC[C@H]1Nc1ccc2ccc(C(=O)Nc3cscc3C(F)F)n2n1 [Example 72, 2-{[(1R,2S)-2-aminocyclohexyl]amino}-N-[4-(difluoromethyl)thiophen-3-yl]pyrrolo[1,2-b]pyridazine-7-carboxamide trifluoroacetate]	24 nM
N#Cc1cscc1NC(=O)c1ccc2ccc(N[C@@H]3CCCC[C@@H]3N)nn12 [Example 73, 2-{[(1R,2S)-2-aminocyclohexyl]amino}-N-(4-cyanothiophen-3-yl)pyrrolo[1,2-b]pyridazine-7-carboxamide trifluoroacetate]	3 nM

Other lines, results leading:

IC50	Structure (SMILES)
0.7 nM	Cn1cc(NC(=O)c2ccc3ccc(N[C@@H]4CCCC[C@@H]4N)nn23)c(C#N)n1 [Example 29, 2-{[(1R,2S)-2-aminocyclohexyl]amino}-N-(3-cyano-1-methyl-1H-pyrazol-4-yl)pyrrolo[1,2-b]pyridazine-7-carboxamide trifluoroacetate]
275 nM	Cn1cc(NC(=O)c2ccc3ccc(N[C@@H]4CCCC(F)(F)[C@@H]4N)nn23)c(Br)n1 [Example 32, 2-{[(1R,2R)-2-amino-3,3-difluoro-cyclohexyl]amino}-N-(3-bromo-1-methyl-1H-pyrazol-4-yl)pyrrolo[1,2-b]pyridazine-7-carboxamide trifluoroacetate]
53 nM	CC(C)n1cc(NC(=O)c2ccc3ccc(N[C@@H]4CCCC[C@@H]4O)nn23)c(C(F)F)n1 [Example 55, N-[3-(difluoromethyl)-1-(1-methylethyl)-1H-pyrazol-4-yl]-2-{[(1R,2S)-2-hydroxycyclohexyl]amino}pyrrolo[1,2-b]pyridazine-7-carboxamide trifluoroacetate]
3960 nM	O=C(Nc1ccccc1Br)c1ccc2ccc(N3CCCNCC3)nn12 [Example 57, N-(2-bromophenyl)-2-(1,4-diazepan-1-yl)pyrrolo[1,2-b]pyridazine-7-carboxamide trifluoroacetate]
1660 nM	O=C(Nc1ccccc1Br)c1ccc2ccc(N3CC4CCC3CN4)nn12 (stereo not shown) [Example 61, N-(2-bromophenyl)-2-(2,5-diazabicyclo[2.2.2]oct-2-yl)pyrrolo[1,2-b]pyridazine-7-carboxamide trifluoroacetate]
415 nM	O=C(Nc1cscc1Br)c1ccc2ccc(N3CC4CCC3CN4)nn12 (stereo not shown) [Example 62, N-(4-bromothiophen-3-yl)-2-(2,5-diazabicyclo[2.2.2]oct-2-yl)pyrrolo[1,2-b]pyridazine-7-carboxamide trifluoroacetate]
611 nM	O=C(Nc1ccccc1Cl)c1ccc2ccc(N3CC4CCC3CN4)nn12 (stereo not shown) [Example 64, N-(2-chlorophenyl)-2-(2,5-diazabicyclo[2.2.2]oct-2-yl)pyrrolo[1,2-b]pyridazine-7-carboxamide trifluoroacetate]
6 nM	N[C@H]1CCCC[C@H]1Nc1ccc2ccc(C(=O)Nc3ccccc3Cl)n2n1 [Example 65, 2-{[(1R,2S)-2-aminocyclohexyl]amino}-N-(2-chlorophenyl)pyrrolo[1,2-b]pyridazine-7-carboxamide trifluoroacetate]
636 nM	O=C(Nc1ccsc1Cl)c1ccc2ccc(N3CCCNCC3)nn12 [Example 66, N-(2-chlorothiophen-3-yl)-2-(1,4-diazepan-1-yl)pyrrolo[1,2-b]pyridazine-7-carboxamide trifluoroacetate]
190 nM	N#Cc1cscc1NC(=O)c1ccc2ccc(N3CCCNCC3)nn12 [Example 68, N-(4-cyanothiophen-3-yl)-2-(1,4-diazepan-1-yl)pyrrolo[1,2-b]pyridazine-7-carboxamide trifluoroacetate]
433 nM	O=C(Nc1ccsc1Cl)c1ccc2ccc(N3CC4CCC3CN4)nn12 (stereo not shown) [Example 70, N-(2-chlorothiophen-3-yl)-2-(2,5-diazabicyclo[2.2.2]oct-2-yl)pyrrolo[1,2-b]pyridazine-7-carboxamide trifluoroacetate]
134 nM	N#Cc1cscc1NC(=O)c1ccc2ccc(N3CC4CCC3CN4)nn12 (stereo not shown) [Example 74, N-(4-cyanothiophen-3-yl)-2-(2,5-diazabicyclo[2.2.2]oct-2-yl)pyrrolo[1,2-b]pyridazine-7-carboxamide trifluoroacetate]
